Values quoted from earlier work, collected in US6846809B2, “PEI: DNA vector formulations for in vitro and in vivo gene delivery” (Board of Regents, The University of Texas System, priority 2000, dated 2005).
Counter-ions that a name gives are not always drawn. Like-named read-outs stand apart in the source and are kept apart here. Each block holds one compound with its values, some of them ahead of it. *1 amine or outer side, *2 acyl side, *3 side chain or, on linkers, in order; H or OH if unused. Where a SMILES comes first, the peptide text is derived from it. Bridges are numbered along the chain shown (N, C = ends). Roman numbers before positions name the chains, in order. [ ]: non-standard residue; d: D form. Actinocin(9to1) = Cc1c2oc3c(C)ccc(C(=O)[*:1])c3nc-2c(C(=O)[*:2])c(N)c1=O; NMeV = CN[C@H](C(=O)O)C(C)C; Sar = CNCC(=O)O

What was measured:
[1] = system: chronic myelogenous leukemia; settings: previously untreated
[2] = system: multiple myeloma; settings: oral administration
[3] = system: certain animal tumors; settings: in vivo
[4] = mouse, in vivo
[5] = system: Hodgkin's Disease, testicular tumors, squamous cell cancers

Compound: Cc1c2oc3c(C)ccc(C(=O)N[C@@H]4C(=O)N[C@H](C(C)C)C(=O)N5CCC[C@H]5C(=O)N(C)CC(=O)N(C)[C@@H](C(C)C)C(=O)O[C@@H]4C)c3nc-2c(C(=O)N[C@@H]2C(=O)N[C@H](C(C)C)C(=O)N3CCC[C@H]3C(=O)N(C)CC(=O)N(C)[C@@H](C(C)C)C(=O)O[C@@H]2C)c(N)c1=O [Actinomycin D] (I: T[dV]P[Sar][NMeV] / II: T[dV]P[Sar][NMeV]; ester I:1-I:C, II:1-II:C; linker I:N-II:N via Actinocin(9to1))
blood-brain barrier passage (human, in vivo): does not pass the blood-brain barrier | fraction of dose excreted in the urine (human, in vivo): 10% | fraction of dose excreted intact into the bile (human, in vivo): Half of the dose | half-life (human, in vivo): about 36 hours

Compound: CS(=O)(=O)OCCCCOS(C)(=O)=O [Busulfan, 1,4-butanediol dimethanesulfonate]
adults obtaining hematologic remission [1]: Approximately 90%

Compound: O=C(O)CCCc1ccc(N(CCCl)CCCl)cc1 [Chlorambucil, 4-[bis(2-chlorethyl)amino] benzenebutanoic acid]
oral / gastrointestinal absorption (human, in vivo): rapidly and completely absorbed | terminal half-life (plasma): about 1.5 hours | time to peak plasma levels (single oral doses of about 0.6 mg/kg to about 1.2 mg/kg): within one hour

Compound: O.O=P1(N(CCCl)CCCl)NCCCO1 (centres unmarked) [Cyclophosphamide, 2H-1,3,2-Oxazaphosphorin-2-amine, N,N-bis(2-chloroethyl)tetrahydro-, 2-oxide, monohydrate]
stability in the gastrointestinal tract (human, in vivo): stable in the gastrointestinal tract | local tolerance (oral and parental routes): does not cause local vesication, necrosis, phlebitis or even pain

elimination half-life (human, in vivo): about 19 hours | fraction secreted into the bile (human, in vivo): about 40% | half-life of distribution (human, in vivo): 45 min | oral / gastrointestinal absorption (human, in vivo): poor
Compound: COc1cccc2c1C(=O)c1c(O)c3c(c(O)c1C2=O)C[C@@](O)(C(C)=O)C[C@@H]3O[C@H]1C[C@H](N)[C@H](O)[C@H](C)O1 [Daunorubicin, 5,12-Naphthacenedione, (8S-cis)-8-acetyl-10-[(3-amino-2,3,6-trideoxy-a-L-lyxo-hexanopyranosyl)oxy]-7,8,9,10-tetrahydro-6,8,11-trihydroxy-10-methoxy-, hydrochloride]

Compound: COc1cccc2c1C(=O)c1c(O)c3c(c(O)c1C2=O)C[C@@](O)(C(=O)CO)C[C@@H]3O[C@H]1C[C@H](N)[C@H](O)[C@H](C)O1 [Doxorubicin, 5,12-Naphthacenedione, (8s-cis)-10-[(3-amino-2,3,6--trideoxy-a-L-lyxo-hexopyranosyl)oxy]-7,8,9,10-tetrahydro-6,8,11-trihydroxy-8-(hydroxyacetyl)-1-methoxy-hydrochloride]
elimination half-life (human, in vivo): about 30 hours | fraction of dose excreted in the urine (human, in vivo): a few percent

Compound: O=NN(CCCl)C(=O)NC1CCCCC1 [Lomustine, 1-(2-chloro-ethyl)-3-cyclohexyl-1 nitrosourea]
serum half-life of the metabolites (human, in vivo): 16 hours to about 2 days | radioactivity excreted as degradation products within 24 hours (oral radioactive drug, about 30 mg/m^2 to 100 mg/m^2): about half

Compound: N[C@@H](Cc1ccc(N(CCCl)CCCl)cc1)C(=O)O [Melphalan, 4-[bis(2-chloroethyl)amino]-L-phenylalanine]
patients showing a favorable response [2]: about one third to one half

Compound: CO[C@@]12[C@H](COC(N)=O)C3=C(C(=O)C(C)=C(N)C3=O)N1C[C@@H]1N[C@@H]12 [Mitomycin]
time required to reduce the serum concentration by about 50% (30 mg bolus injection): 17 min | fraction of dose excreted in the urine (human, in vivo): Approximately 10%

fraction of dose recovered in the feces (after biliary excretion): about 10% | distribution into blood cells (human, in vivo): extensively concentrated in platelets | fraction of dose excreted in the urine (human, in vivo): Approximately 15%
Compound: CC[C@]1(O)C[C@@H]2CN(CCc3c([nH]c4ccccc34)[C@@](C(=O)OC)(c3cc4c(cc3OC)N(C)[C@H]3[C@@](O)(C(=O)OC)[C@H](OC(C)=O)[C@]5(CC)C=CCN6CC[C@]43[C@@H]65)C2)C1 [Vinblastine]

distribution into blood cells (human, in vivo): extensively concentrated in platelets
Compound: CC[C@]1(O)C[C@H]2CN(CCc3c([nH]c4ccccc34)[C@@](C(=O)OC)(c3cc4c(cc3OC)N(C=O)[C@H]3[C@@](O)(C(=O)OC)[C@H](OC(C)=O)[C@]5(CC)C=CCN6CC[C@]43[C@@H]65)C2)C1 [Vincristine]

Compound: COc1cccc2c1C(=O)c1c(O)c3c(c(O)c1C2=O)C[C@@](O)([C@H](C)O)C[C@@H]3O[C@H]1C[C@H](N)[C@H](O)[C@H](C)O1 [daunorubicinol]
half-life (human, in vivo): about 27 hours

Compound: N[C@H](Cc1ccc(N(CCCl)CCCl)cc1)C(=O)O [medphalan]
activity compared with the L-isomer [3]: less active against certain animal tumors

Compound: Bleomycin
concentrations in hematopoietic tissue / bone marrow [4]: low concentrations | concentrations in skin, lungs, kidneys, peritoneum, and lymphatics [4]: high concentrations | time to improvement ([5]; Hodgkin's Disease and testicular tumors): ≤ 2 weeks | time to improvement ([5]; squamous cell cancers): ≤ 3 weeks | fraction of dose excreted in the urine (human, in vivo): 60-70%
